For series [1], the target named is T1, LFA-1 (CD18/CD11a) binding to ICAM-1 (Homo sapiens, UniProt P05107+P20701).
T1 construct: endogenous in cells; host or cells: LFA-1: endogenous, immunopurified from human JY or SKW3 cell lysates. sICAM-1: made in house, secreted from transfected CHO DUX cells
In words: Assay to Determine Inhibition of LFA-1 Binding to ICAM-1. As to conditions: immunoaffinity purified LFA-1 on plate-bound sICAM-1, 37° C. for 1 h, dose-response curve. An excerpt:
This assay protocol is designed to study the direct antagonism, by a test compound, of the interaction of the CAM, ICAM-1 with the Leukointegrin CD18/CD11a (LFA-1).
After collection and neutralization of fractions from the TS2/4 column, samples are pooled and precleared with Protein G agarose.
An expression vector is created with a hamster dihydrofolate reductase gene, a neomycin-resistance marker, and the coding region of the sICAM-1 construct described above, along with the promoter, splice signals, and polyadenylation signal of the SV40 early region. The recombinant plasmid is transfected into CHO DUX cells using standard calcium phosphate methods. Cells are passaged in selective media (G418) and colonies secreting sICAM-1 are amplified using methotrexate. sICAM-1 is purified from serum-free media using traditional non-affinity chromatographic techniques, including ion exchange and size exclusion chromatography.
LFA-1 binding to ICAM-1 is monitored by first incubating sICAM-1 at 40 μg/mL in Dulbecco's phosphate buffered saline with calcium and magnesium, additional 2 mM MgCl2 and 0.1 mM PMSF (Diluting Buffer) in a 96-well plate for 30 min at room temperature. Plates are then blocked by the addition of 2% (w/v) bovine serum albumin in Diluting Buffer for 37° C. for 1 h. Blocking solution is removed from wells, and test compounds are diluted and then added followed by the addition of approximately 25 ng of immunoaffinity purified LFA-1. The LFA-1 is incubated in the presence of test compound and ICAM-1 at 37° C. for 1 h. Wells are washed 3 times with Diluting Buffer. The bound LFA-1 is detected by the addition of a polyclonal antibody directed against a peptide corresponding to the CD18 cytoplasmic tail in a 1:100 dilution with Diluting Buffer and 1% BSA and allowed to incubate for 45 min at 37° C. Wells are washed 3 times with Diluting Buffer and the bound polyclonal antibody is detected by the addition of a 1:4000 dilution of horse radish peroxidase conjugated to goat immunoglobulin directed against rabbit immunoglobulin. This reagent is allowed to incubate for 20 min at 37° C., wells are washed as above and the substrate for the horse radish peroxidase is added to each well to develop a quantitative colorimetric signal proportional to the amount of LFA-1 bound to sICAM-1. […] The lack of the addition of LFA-1 to the binding assay is used as a background control for all samples. A dose-response curve is obtained for all test compounds.

By pKd is commonly meant the negative decadic logarithm of the Kd, by convention in mol/L. Read a low pKd as a large Kd. Usually melting point stands for the temperature of the solid-liquid transition.

pKd: −log10 of the molar value.

T1 sequence (P20701 26-1170): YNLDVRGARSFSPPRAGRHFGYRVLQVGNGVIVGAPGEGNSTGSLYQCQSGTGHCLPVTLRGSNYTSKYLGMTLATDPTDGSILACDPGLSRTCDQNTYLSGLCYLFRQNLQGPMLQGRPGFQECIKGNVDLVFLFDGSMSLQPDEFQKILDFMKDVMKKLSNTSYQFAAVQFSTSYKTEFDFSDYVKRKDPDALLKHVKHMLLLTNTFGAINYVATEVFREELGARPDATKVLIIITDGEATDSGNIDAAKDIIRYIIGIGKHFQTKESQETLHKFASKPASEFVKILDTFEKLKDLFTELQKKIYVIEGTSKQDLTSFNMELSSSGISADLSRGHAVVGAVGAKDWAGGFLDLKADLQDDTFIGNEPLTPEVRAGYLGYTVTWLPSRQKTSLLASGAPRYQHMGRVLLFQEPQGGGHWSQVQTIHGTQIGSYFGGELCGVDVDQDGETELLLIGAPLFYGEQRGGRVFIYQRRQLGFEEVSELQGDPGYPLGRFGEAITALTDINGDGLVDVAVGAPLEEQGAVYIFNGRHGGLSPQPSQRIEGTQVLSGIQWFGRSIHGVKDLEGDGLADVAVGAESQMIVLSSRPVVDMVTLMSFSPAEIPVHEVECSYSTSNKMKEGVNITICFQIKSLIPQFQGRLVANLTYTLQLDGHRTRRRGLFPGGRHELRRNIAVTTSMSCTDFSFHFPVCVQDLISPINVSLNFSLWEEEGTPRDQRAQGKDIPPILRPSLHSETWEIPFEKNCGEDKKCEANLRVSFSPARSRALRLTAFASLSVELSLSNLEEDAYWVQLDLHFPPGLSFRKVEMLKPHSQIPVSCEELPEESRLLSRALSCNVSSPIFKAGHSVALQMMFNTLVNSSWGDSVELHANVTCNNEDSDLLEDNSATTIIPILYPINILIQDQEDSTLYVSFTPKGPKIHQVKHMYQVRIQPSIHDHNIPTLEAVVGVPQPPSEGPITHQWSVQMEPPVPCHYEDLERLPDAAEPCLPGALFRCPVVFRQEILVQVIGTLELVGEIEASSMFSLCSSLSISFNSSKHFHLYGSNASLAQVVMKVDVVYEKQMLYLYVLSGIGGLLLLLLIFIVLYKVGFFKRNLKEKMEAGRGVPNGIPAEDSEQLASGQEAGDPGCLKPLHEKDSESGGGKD
T1 sequence (P05107 23-769): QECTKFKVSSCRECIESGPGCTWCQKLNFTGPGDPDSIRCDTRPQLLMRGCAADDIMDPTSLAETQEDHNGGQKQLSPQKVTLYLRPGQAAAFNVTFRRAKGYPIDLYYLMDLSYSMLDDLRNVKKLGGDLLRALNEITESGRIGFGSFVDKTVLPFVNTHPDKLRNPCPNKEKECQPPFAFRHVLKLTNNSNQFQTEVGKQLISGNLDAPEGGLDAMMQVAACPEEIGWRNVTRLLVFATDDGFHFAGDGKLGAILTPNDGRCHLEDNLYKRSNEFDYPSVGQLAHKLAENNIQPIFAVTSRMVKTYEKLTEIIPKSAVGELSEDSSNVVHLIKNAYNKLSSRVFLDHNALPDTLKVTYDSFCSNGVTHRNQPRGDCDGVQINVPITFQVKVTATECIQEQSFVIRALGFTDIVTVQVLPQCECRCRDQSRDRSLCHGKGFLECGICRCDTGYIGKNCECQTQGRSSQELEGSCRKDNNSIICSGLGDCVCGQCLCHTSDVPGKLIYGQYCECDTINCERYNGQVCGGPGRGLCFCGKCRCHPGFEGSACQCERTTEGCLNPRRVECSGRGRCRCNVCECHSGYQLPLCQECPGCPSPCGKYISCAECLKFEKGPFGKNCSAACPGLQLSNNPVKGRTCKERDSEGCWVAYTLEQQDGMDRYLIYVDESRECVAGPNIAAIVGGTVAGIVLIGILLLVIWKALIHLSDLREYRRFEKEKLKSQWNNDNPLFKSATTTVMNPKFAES

Consider `O=C1C(Cc2ccc(Br)cc2)c2ccccc2N1c1cc(Cl)cc(Cl)c1` (centres unmarked) [Example 1, 3-(4-Bromobenzyl)-1-(3,5-dichlorophenyl)-1,3-dihydroindol-2-one], for which the melting point is 139 to 142 °C. The pKd in series [1] is < 5.00. `CC1(Cc2ccc(Br)cc2)C(=O)N(c2cc(Cl)cc(Cl)c2)c2ccccc21` (centres unmarked) [Example 2, 3-(4-Bromobenzyl)-1-(3,5-dichlorophenyl)-3-methyl-1,3-dihydro-indol-2-one]: the pKd in series [1] is < 5.00.

As to `CC1(Cc2ccc(Br)cc2)C(=O)N(c2cc(Cl)cc(Cl)c2)c2ncccc21` (centres unmarked) [Example 3, 3-(4-Bromobenzyl)-1-(3,5-dichlorophenyl)-3-methyl-1,3-dihydropyrrolo[2,3-b]pyridin-2-one], the pKd in series [1] was 6.43.

In series [1], `CC1(Cc2ccc(C#N)cc2)C(=O)N(c2cc(Cl)cc(Cl)c2)c2ncccc21` (centres unmarked) [Example 5, 3-(4-cyanobenzyl)-1-(3,5-dichlorophenyl)-3-methyl-1,3-dihydropyrrolo[2,3-b]pyridin-2-one] showed a pKd of 5.45. This pKd is 0.98 log units lower than that of the compound before.

`CC1(Cc2ccc(Br)cc2)C(=O)N(c2cc(Cl)cc(Cl)c2)c2cccc(O)c21` (centres unmarked) [Example 6, 3-(4-bromobenzyl)-1-(3,5-dichlorophenyl)-4-hydroxy-3-methyl-1,3-dihydroindol-2-one] registered a melting point of 225 to 227 °C. The pKd in series [1] is 5.75. The compound `O=C1C(Cc2ccc(Br)cc2)c2cc(F)ccc2N1c1cc(Cl)cc(Cl)c1` (centres unmarked) [Example 7, 3-(4-bromobenzyl)-1-(3,5-dichlorophenyl)-5-fluoro-1,3-dihydroindol-2-one] yielded a melting point of 178 to 179 °C. Moreover, the pKd in series [1] was 5.57. In the same order, the values of `O=C(O)c1ccc2c(c1)N(c1cc(Cl)cc(Cl)c1)C(=O)C2Cc1ccc(Br)cc1` (centres unmarked) [Example 8, 3-(4-bromobenzyl)-1-(3,5-dichlorophenyl)-1,3-dihydroindol-2-one-6-carboxylic acid] are 264 to 266 °C and 5.31. The like results for `COc1cccc2c1C(Cc1ccccc1)C(=O)N2c1cc(Cl)cc(Cl)c1` (centres unmarked) [Example 9, 3-benzyl-1-(3,5-dichlorophenyl)-4-methoxy-1,3-dihydroindol-2-one] were, in that order, 138 to 140 °C and 6.15. On to `COc1cccc2c1C(Cc1cccc(Br)c1)C(=O)N2c1cc(Cl)cc(Cl)c1` (centres unmarked) [Example 10, 3-(3-bromobenzyl)-1-(3,5-dichlorophenyl)-4-methoxy-1,3-dihydroindol-2-one], for which the melting point is 142 to 144 °C. This compound also showed a pKd in series [1] of 5.97.

Compound `CC1(Cc2cccc(Br)c2)C(=O)N(c2cc(Cl)cc(Cl)c2)c2cccc(O)c21` (centres unmarked) [Example 11, 3-(3-bromobenzyl)-1-(3,5-dichlorophenyl)-4-hydroxy-3-methyl-1,3-dihydroindol-2-one] registered a melting point of 225 to 227 °C. Further, the pKd in series [1] was 5.60. The like results for `O=C1C(Cc2ccccc2)c2c(O)cccc2N1c1cc(Cl)cc(Cl)c1` (centres unmarked) [Example 12, 3-benzyl-1-(3,5-dichlorophenyl)-4-hydroxy-1,3-dihydroindol-2-one] were, in that order, 181 to 185 °C and 5.88.

`COc1ccc2c(c1)C(Cc1ccccc1)C(=O)N2c1cc(Cl)cc(Cl)c1` (centres unmarked) [Example 13, 3-benzyl-1-(3,5-dichlorophenyl)-5-methoxy-1,3-dihydroindol-2-one]: the melting point was in the range of 118 to 119 °C. In series [1], the negative logarithm of the Kd (pKd) is < 5.00. The like results for `O=C1C(Cc2ccccc2)c2cc(O)ccc2N1c1cc(Cl)cc(Cl)c1` (centres unmarked) [Example 14, 3-benzyl-1-(3,5-dichlorophenyl)-5-hydroxy-1,3-dihydroindol-2-one] were, in that order, 232 to 235 °C and < 5.00. Take `O=C1C(Cc2ccccc2)c2ccccc2N1c1cc(Cl)cc(Cl)c1` (centres unmarked) [Example 15, 3-benzyl-1-(3,5-dichlorophenyl)-1,3-dihydroindol-2-one]: the melting point was 109 to 111 °C. Also, the negative-log Kd (pKd) in series [1] was 5.30. Compound `CC1(Cc2ccccc2)C(=O)N(c2cc(Cl)cc(Cl)c2)c2cccc(O)c21` (centres unmarked) [Example 16, 3-benzyl-1-(3,5-dichlorophenyl)-4-hydroxy-3-methyl-1,3-dihydroindol-2-one] had a melting point of 165 to 166.5 °C. For the same compound, in series [1], the pKd was 5.84.

Compound `O=C1C(Cc2ccc(Br)cc2)c2c(O)cccc2N1c1cc(Cl)cc(Cl)c1` (centres unmarked) [Example 17, 3-(4-bromobenzyl)-1-(3,5-dichlorophenyl)-4-hydroxy-1,3-dihydroindol-2-one] had a melting point of 203 to 208 °C. For the same compound, the pKd in series [1] was 6.04.
